For the assay, the target named is T1, IKK-2 (Homo sapiens, UniProt O14920, S177E/S181E).
T1 construct: His6
T1 sequence (O14920 1-756 S177E/S181E): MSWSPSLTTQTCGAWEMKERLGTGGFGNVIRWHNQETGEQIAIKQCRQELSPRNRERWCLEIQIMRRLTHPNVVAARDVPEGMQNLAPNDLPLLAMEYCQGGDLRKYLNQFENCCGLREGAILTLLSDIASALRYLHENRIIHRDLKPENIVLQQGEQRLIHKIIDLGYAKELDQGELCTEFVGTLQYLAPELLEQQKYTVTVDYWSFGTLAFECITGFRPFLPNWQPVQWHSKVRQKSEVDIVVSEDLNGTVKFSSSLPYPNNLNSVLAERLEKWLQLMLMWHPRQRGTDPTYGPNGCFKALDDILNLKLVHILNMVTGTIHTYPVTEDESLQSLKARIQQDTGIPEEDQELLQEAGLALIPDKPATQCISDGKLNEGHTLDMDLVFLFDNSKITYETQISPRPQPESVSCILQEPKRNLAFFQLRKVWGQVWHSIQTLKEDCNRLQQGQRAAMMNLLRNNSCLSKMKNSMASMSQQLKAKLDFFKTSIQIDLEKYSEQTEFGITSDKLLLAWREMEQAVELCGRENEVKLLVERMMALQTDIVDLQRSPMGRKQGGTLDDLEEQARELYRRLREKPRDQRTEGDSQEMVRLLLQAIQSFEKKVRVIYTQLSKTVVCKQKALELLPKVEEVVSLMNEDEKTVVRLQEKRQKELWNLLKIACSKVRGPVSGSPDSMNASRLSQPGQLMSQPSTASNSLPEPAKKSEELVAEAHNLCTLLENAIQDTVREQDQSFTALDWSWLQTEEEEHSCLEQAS
Put plainly: IKK-2 Enzyme Assay. The class given is biochemical. How it is done: The mixture is preincubated for 15 minutes at room temperature. […] After 30 minutes the precipitate is harvested onto a filter plate to which 50 μl of scintillation fluid is added and then quantified by a scintillation counter.

Setting [1] is: preferred compounds, 1 μM or less, read-out: IC50 value in the IKK-2 Enzyme Assay.
Setting [2] is: more preferred compounds, 500 nM or less, read-out: IC50 value in the IKK-2 Enzyme Assay.

Where two headings read alike, the source gives them in different places. Some results are limits rather than exact numbers.

These results are taken from patent publication US7442699B2, “Anilinopyrimidine derivatives as IKK inhibitors and compositions and methods related thereto” (Signal Pharmaceuticals, LLC, priority 2000, dated 2008).

In general, IC50 refers to the concentration that gives 50% inhibition. As to `NC(=O)c1ccc(Nc2nccc(-c3ccc(Cl)cc3)n2)cc1` [Compound 1, 4-{[4-(4-chlorophenyl)pyrimidin-2-yl]amino}benzamide], under setting [1], the IC50 is at most 1000 nM.
With `NC(=O)c1ccc(Nc2nccc(-c3ccc(S(=O)(=O)c4ccncc4)cc3)n2)cc1` [Compound 3-8], the IC50 runs as follows: under setting [2], at most 500 nM; under setting [1], at most 1000 nM.
For the compound `NC(=O)c1ccc(Nc2nccc(-c3ccc(S(=O)(=O)c4ccccn4)cc3)n2)cc1` [Compound 3-9], the IC50 under setting [1] is at most 1000 nM.
As to `NC(=O)c1ccc(Nc2nccc(-c3ccc(S(=O)(=O)c4cccnc4)cc3)n2)cc1` [Compound 3-13], under setting [1], the IC50 was at most 1000 nM.
Turning to `NC(=O)c1ccc(Nc2nccc(-c3ccc(SCCCO)cc3)n2)cc1` [Compound 3-14], the IC50 is at most 500 nM under setting [2] and at most 1000 nM under setting [1].
Take `NC(=O)c1ccc(Nc2nccc(-c3ccc(S(=O)(=O)CCCO)cc3)n2)cc1` [Compound 3-15]: under setting [1], the IC50 is at most 1000 nM.
`NC(=O)c1ccc(Nc2nccc(-c3ccc(S(=O)(=O)c4ccccc4)cc3)n2)cc1` [Compound 3-21]: the IC50 reads like this: under setting [2], at most 500 nM; under setting [1], at most 1000 nM.
As to `NC(=O)c1ccc(Nc2nccc(-c3ccc4ccccc4c3)n2)cc1` [Compound 3-34], the IC50 under setting [1] is at most 1000 nM.
Take `CN(C)C(=O)c1ccc(Nc2nccc(-c3ccc(Cl)cc3)n2)cc1` [Compound 17-2]: the IC50 reads like this: under setting [2], at most 500 nM; under setting [1], at most 1000 nM.
`CNC(=O)c1ccc(Nc2nccc(-c3ccc(Cl)cc3)n2)cc1` [Compound 17-3]: under setting [1], the IC50 was at most 1000 nM.
With `CN(C)C(=O)c1ccc(Nc2nccc(-c3ccc(Br)cc3)n2)cc1` [Compound 17-18], the IC50 under setting [2] is at most 500 nM and the IC50 under setting [1] is at most 1000 nM.
On to `O=C(c1ccc(Nc2nccc(-c3ccc(Cl)cc3)n2)cc1)N1CCC(O)CC1` [Compound 17-20], for which the IC50 is at most 500 nM under setting [2] and at most 1000 nM under setting [1].
For the compound `O=C(NCCCn1ccnc1)c1ccc(Nc2nccc(-c3ccc(Cl)cc3)n2)cc1` [Compound 17-21], under setting [1], the IC50 was at most 1000 nM.
As to `CC(=O)NCCNC(=O)c1ccc(Nc2nccc(-c3ccc(Cl)cc3)n2)cc1` [Compound 17-22], the IC50 under setting [1] is at most 1000 nM.
As for `O=C(NCCCN1CCCCC1)c1ccc(Nc2nccc(-c3ccc(Cl)cc3)n2)cc1` [Compound 17-23], the concentration for half-maximal inhibition (IC50) under setting [1] is at most 1000 nM.
For the compound `O=C(NCCCO)c1ccc(Nc2nccc(-c3ccc(Cl)cc3)n2)cc1` [Compound 17-25], the IC50 under setting [1] is at most 1000 nM.
As to `O=C(c1ccc(Nc2nccc(-c3ccc(Cl)cc3)n2)cc1)N1CCC[C@@H]1CO` [Compound 17-27], the half-maximal inhibitory concentration (IC50) reads like this: under setting [2], at most 500 nM; under setting [1], at most 1000 nM.
Regarding `O=C(c1ccc(Nc2nccc(-c3ccc(Cl)cc3)n2)cc1)N1CCC(O)C1` (stereo not drawn) [Compound 17-28], the IC50 was at most 500 nM under setting [2] and at most 1000 nM under setting [1].
For `CC(=O)N1CCN(C(=O)c2ccc(Nc3nccc(-c4ccc(S(=O)(=O)c5ccncc5)cc4)n3)cc2)CC1` [Compound 17-29], the IC50 was at most 500 nM under setting [2] and at most 1000 nM under setting [1].
Take `O=C(c1ccc(Nc2nccc(-c3ccc(S(=O)(=O)c4ccncc4)cc3)n2)cc1)N1CCN(C(=O)c2ccco2)CC1` [Compound 17-30]: the IC50 reads like this: under setting [2], at most 500 nM; under setting [1], at most 1000 nM.
In the case of `CN(C)C(=O)c1ccc(Nc2nccc(-c3ccc(SCCCO)cc3)n2)cc1` [Compound 17-31], the half-inhibitory concentration (IC50) was at most 500 nM under setting [2] and at most 1000 nM under setting [1].
The like results for `CC(C)NC(=O)CN1CCN(C(=O)c2ccc(Nc3nccc(-c4ccc(SCCCO)cc4)n3)cc2)CC1` [Compound 17-32] were, in that order, at most 500 nM and at most 1000 nM.
Turning to `CC(=O)N1CCN(C(=O)c2ccc(Nc3nccc(-c4ccc(SCCCO)cc4)n3)cc2)CC1` [Compound 17-33], the IC50 was at most 500 nM under setting [2] and at most 1000 nM under setting [1].
Take `O=C(c1ccc(Nc2nccc(-c3ccc(SCCCO)cc3)n2)cc1)N1CCN(C(=O)c2ccco2)CC1` [Compound 17-34]: the 50% inhibitory concentration (IC50) by setting is: under setting [2], at most 500 nM; under setting [1], at most 1000 nM.
Regarding `CCN1CCN(C(=O)c2ccc(Nc3nccc(-c4ccc(Cl)cc4)n3)cc2)CC1` [Compound 17-35], the 50% inhibitory concentration (IC50) runs as follows: under setting [2], at most 500 nM; under setting [1], at most 1000 nM.
As to `CC(C)(C)OC(=O)N1CCN(C(=O)c2ccc(Nc3nccc(-c4ccc(Cl)cc4)n3)cc2)CC1` [Compound 17-36], the IC50 reads like this: under setting [2], at most 500 nM; under setting [1], at most 1000 nM.
As to `CCC(=O)N1CCN(C(=O)c2ccc(Nc3nccc(-c4ccc(Cl)cc4)n3)cc2)CC1` [Compound 17-37], the half-maximal inhibitory concentration (IC50) under setting [2] was at most 500 nM.
On to `O=C(NCCCN1CCCC1=O)c1ccc(Nc2nccc(-c3ccc(Cl)cc3)n2)cc1` [Compound 17-54], for which, under setting [1], the concentration for half-maximal inhibition (IC50) is at most 1000 nM.
On to `O=C(c1ccc(Nc2nccc(-c3ccc(Cl)cc3)n2)cc1)N1CCCCC1` [Compound 17-71], for which, under setting [1], the 50% inhibitory concentration (IC50) was at most 1000 nM.
Regarding `COCCCNC(=O)c1ccc(Nc2nccc(-c3ccc(Cl)cc3)n2)cc1` [Compound 17-72], the IC50 under setting [1] was at most 1000 nM.
Turning to `O=C(NCCCN1CCOCC1)c1ccc(Nc2nccc(-c3ccc(Cl)cc3)n2)cc1` [Compound 17-86], the IC50 is at most 500 nM under setting [2] and at most 1000 nM under setting [1].
For `COC(=O)CNC(=O)c1ccc(Nc2nccc(-c3ccc(Cl)cc3)n2)cc1` [Compound 17-91], the IC50 under setting [2] is at most 500 nM and the IC50 under setting [1] is at most 1000 nM.
With `O=C(NCCc1ccccn1)c1ccc(Nc2nccc(-c3ccc(Cl)cc3)n2)cc1` [Compound 17-118], the IC50 under setting [1] is at most 1000 nM.
Take `CN1CCN(C(=O)c2ccc(Nc3nccc(-c4ccc(Cl)cc4)n3)cc2)CC1` [Compound 17-127]: the half-maximal inhibitory concentration (IC50) is, setting by setting: under setting [2], at most 500 nM; under setting [1], at most 1000 nM.
Turning to `O=C(c1ccc(Nc2nccc(-c3ccc(Cl)cc3)n2)cc1)N1CCN(Cc2ccc3c(c2)OCO3)CC1` [Compound 17-128], the half-inhibitory concentration (IC50) under setting [1] was at most 1000 nM.
As for `CC(=O)N1CCN(C(=O)c2ccc(Nc3nccc(-c4ccc(Cl)cc4)n3)cc2)CC1` [Compound 17-129], the IC50 runs as follows: under setting [2], at most 500 nM; under setting [1], at most 1000 nM.
Take `O=CN1CCN(C(=O)c2ccc(Nc3nccc(-c4ccc(Cl)cc4)n3)cc2)CC1` [Compound 17-131]: the half-maximal inhibitory concentration (IC50) is at most 500 nM under setting [2] and at most 1000 nM under setting [1].
For `CCCNC(=O)c1ccc(Nc2nccc(-c3ccc(Cl)cc3)n2)cc1` [Compound 17-132], the IC50 under setting [1] is at most 1000 nM.
Regarding `O=C(c1ccc(Nc2nccc(-c3ccc(Cl)cc3)n2)cc1)N1CCOCC1` [Compound 17-133], the IC50 under setting [2] is at most 500 nM and the IC50 under setting [1] is at most 1000 nM.
Take `O=C(c1ccc(Nc2nccc(-c3ccc(Cl)cc3)n2)cc1)N1CCN(c2ccc([N+](=O)[O-])cc2)CC1` [Compound 17-136]: the 50% inhibitory concentration (IC50) under setting [1] is at most 1000 nM.
Take `CCOC(=O)N1CCN(C(=O)c2ccc(Nc3nccc(-c4ccc(Cl)cc4)n3)cc2)CC1` [Compound 17-137]: the IC50 was at most 500 nM under setting [2] and at most 1000 nM under setting [1].
As for `O=C(c1ccc(Nc2nccc(-c3ccc(Cl)cc3)n2)cc1)N1CCC2(CC1)OCCO2` [Compound 17-139], the IC50 reads like this: (IC50 value in the IKK-2 Enzyme Assay, more preferred compounds, 500 nM or less) at most 500 nM; (IC50 value in the IKK-2 Enzyme Assay, preferred compounds, 1 μM or less) at most 1000 nM.
For the compound `CC(C)NC(=O)CN1CCN(C(=O)c2ccc(Nc3nccc(-c4ccc(Cl)cc4)n3)cc2)CC1` [Compound 17-141], the IC50 under setting [2] is at most 500 nM and the IC50 under setting [1] was at most 1000 nM.
Take `O=C(NCCN1CCOCC1)c1ccc(Nc2nccc(-c3ccc(Cl)cc3)n2)cc1` [Compound 17-142]: under setting [1], the half-inhibitory concentration (IC50) is at most 1000 nM.
Take `O=C(c1ccc(Nc2nccc(-c3ccc(Cl)cc3)n2)cc1)N1CC=CCC1` [Compound 17-144]: the half-maximal inhibitory concentration (IC50) under setting [1] is at most 1000 nM.
Take `CCN(Cc1ccncc1)C(=O)c1ccc(Nc2nccc(-c3ccc(Cl)cc3)n2)cc1` [Compound 17-147]: the IC50 under setting [1] is at most 1000 nM.
`CN(C)CCN(Cc1ccccc1)C(=O)c1ccc(Nc2nccc(-c3ccc(Cl)cc3)n2)cc1` [Compound 17-150]: the 50% inhibitory concentration (IC50) runs as follows: under setting [2], at most 500 nM; under setting [1], at most 1000 nM.
As for `CN(CCc1ccccn1)C(=O)c1ccc(Nc2nccc(-c3ccc(Cl)cc3)n2)cc1` [Compound 17-151], the concentration for half-maximal inhibition (IC50) under setting [1] was at most 1000 nM.
Still for that read-out and setting: under `CN1CCCC1CCNC(=O)c1ccc(Nc2nccc(-c3ccc(Cl)cc3)n2)cc1` (stereo not drawn) [Compound 17-152] stands at most 1000 nM; under `CCN(CC)CCCNC(=O)c1ccc(Nc2nccc(-c3ccc(Cl)cc3)n2)cc1` [Compound 17-153], at most 1000 nM.
For `CN(C)CCCNC(=O)c1ccc(Nc2nccc(-c3ccc(Cl)cc3)n2)cc1` [Compound 17-154], the half-maximal inhibitory concentration (IC50) was at most 500 nM under setting [2] and at most 1000 nM under setting [1].
As for `O=C(c1ccc(Nc2nccc(-c3ccc(Cl)cc3)n2)cc1)N1CCN(c2ccccc2)CC1` [Compound 17-158], the IC50 under setting [1] was at most 1000 nM.
Turning to `O=C(c1ccc(Nc2nccc(-c3ccc(Cl)cc3)n2)cc1)N1CCN(C(=O)c2ccco2)CC1` [Compound 17-159], the IC50 was at most 500 nM under setting [2] and at most 1000 nM under setting [1].
